# Experimental data published in US7935507B2, “Method for testing substances on biomatrices” (Humanautocell GmbH, priority 2004, dated 2011).
# System: CYP2E1
# Conditions: tissue equivalent strips (hepatocytes + Langerhan's islet cells on matrix) in William's medium E, 37° C.; benzene 0.005, 0.01, 0.02, 0.05 and 0.1 mM, several hours; compared with basic activity before addition
# Experimental: The strips are placed in approximately 1 liter of William's medium E, which is agitated. Adequate gas exchange is ensured, and the temperature of the medium is maintained at 37° C.
# After the system has equilibrated, a first strip of tissue equivalent is removed and the CYP2E1 activity thereon is determined via the EFCOD test method. Using the said method, the CYP2E1mediated O-dealkylation of 7-ethoxy-4-trifluoromethylcoumarin to 7-hydroxy-4-trifluoromethylcoumarin is determined.
# The benzene is allowed to act for several hours, while maintaining the medium in agitation and ensuring the gas exchange. Then the CYP2E1 activity is determined once again in the way described in the foregoing.
smiles,measurement,value
c1ccccc1 [benzene],CYP2E1 activity (O-dealkylation of 7-ethoxy-4-trifluoromethylcoumarin to 7-hydroxy-4-trifluoromethylcoumarin),distinct increase of the basic activity with increasing benzene concentration
